Source: patent publication US12410185B2, “Compounds targeting mutant calreticulin” (MYELOPRO DIAGNOSTICS AND RESEARCH GmbH, priority 2018, dated 2025)
pIC50: −log10 of the molar value.

Tests used:
CALR mutant cell lines = assay: cells; details: 72 h, read-out: IC50 in mutant cell lines
Experimental: Ba/F3 and UT-7-TPO were plated 5.000 cells/well and 16.000 cells/well into 96-well plates with the desirable concentrations of compounds or cytokines added to a total volume of 100 ul. 72 hours later, the CellTiter-Glo luminescent Cell Viability Assay (Promega) was used to determine the cell viability. The luminescent signal was detected by a VICTOR Multilabel Plate Reader (PerkinElmer). Dose response data was analyzed by Graphpad Prism 7.0.
To further explore the chemical space of the compound, a few hematoxylin analogues were also tested (FIGS. 15 to 17). […] The compounds Protosappanin B (A-4) and RJ002 (B-2) were also tested. […] As a comparison, the clinically used chemotherapeutic drugs hydroxyurea and ruxolitinib were also tested in the cell models.

[1] = tested on: UT-7-TPO CALR del58/WT cells mixed with UT-7-TPO CALR WT cells; assay: two-color competition assay, 12 days; type: cell-based; details: in the presence of TPO
Experimental: FIG. 11: Competition assay of hematoxylin treatment in UT-7-TPO cells. UT-7-TPO CALR WT (mCherry negative) and UT-7-TPO CALR del58/WT (mCherry positive) cells were mixed and underwent hematoxylin treatment for 12 days. Drug and cytokine were refreshed every 3 days. Percentage of mCherry positive cells were recorded by FACs.
To determine long-term viability, a two-color competition assay was used. Cell lines were transduced with pMSCV-IRES-GFP/mCherry construct, and the fluorescence-positive cells were sorted by a SH800Z Cell Sorter (Sony). GFP/mCherry-positive cell lines were mixed with their non-fluorescent control cells in a 1:1 ratio and underwent compound treatment for 3-12 days. Compounds and cytokines were refreshed every 3 days. Cell samples were analyzed at each time point by a BD LSRFortessa™ cell analyzer (BD Biosciences).

[2] = tested on: CALR KO Ba/F3-MPL cell lines; assay: hematoxylin sensitivity of CALR knockout cell lines; type: cell-based, mouse; details: CALR KO vs CALR WT clones
Experimental: In order to further confirm the selective cytotoxicity of hematoxylin in CALR mutant cells, two-color competition assays were performed in both Ba/F3 and UT-7-TPO cells to assess the long-term efficacy of the compound (FIG. 9). […] The differential killing effect of hematoxylin could also be reproduced in the UT-7-TPO cell line. […] This reading frame encounters a stop codon shortly after the mutation and causes a truncation at the CALR C-terminus (FIG. 12). […] Moreover, CALR KO Ba/F3-MPL cell lines were tested for hematoxylin sensitivity.

PARP cleavage = assay: Western blot time-course, Ba/F3-MPL CALR WT/del79; type: cell-based; details: 8-hour time point
Experimental: (§1) 2 million Ba/F3-MPL CALR WT or mutant cells were treated with hematoxylin or the equivalent volume of DMSO in a total volume of 15 ml of RPMI media in T75 flasks (Thermal Fisher Scientific). Cells were collected and washed with PBS before being lysed in whole cell lysis buffer containing 20 mM HEPES, 20% glycerol, 50 mM KCl, 400 mM NaCl, 1 mM EDTA, 1 mM DTT, 5 mM Na orthovanadate, 0.5% NP40, 0.1% Tween 20, supplemented with cOmplete™, Mini, EDTA-free Protease Inhibitor Cocktail (Sigma) and PhosSTOP™ (Sigma). Samples were rotated at 4° C. for 20 min prior to centrifugation at […] for 20 min. The soluble fraction of the sample was collected. Protein concentration was quantified by the Bio-Rad Protein Assay (Bio-Rad) according to the manufacturer's instructions and measured by a SpectraMax Microplate Reader (Molecular Devices). Equal amounts of protein were loaded for 8% or 10% SDS-polyacrylamide gel electrophoresis prior to transfer to Amersham™ Protran® nitrocellulose membranes at 35V, 4° C. overnight. Membranes were then blocked by 5% bovine serum albumin fraction V (Sigma) or milk. Mutant calreticulin was detected by a polyclonal rabbit antibody against the mutant specific C-terminal peptide (Myelopro). […]

STAT5 phosphorylation = assay: Western blot time-course, Ba/F3-MPL CALR WT/del79; type: cell-based; details: 8-hour time point
Experimental: as §1

CALR expression (mRNA) = assay: Real-time PCR analysis of Ba/F3-MPL cell lines; type: cell-based, mouse; details: 20 uM, 24 h
Experimental: FIG. 19: Real-time PCR analysis of Ba/F3-MPL cell lines after a 24 h treatment with hematoxylin. Ba/F3-MPL CALR WT, CALR homozygous mutant del37/del37 cell line were treated with 20 uM hematoxylin or an equivalent amount of DMSO as control for 24 h before cell collection and RNA extraction. **P<0.01; ***P<0.001
1 million cells from each sample were collected and washed with PBS twice. RNA samples were extracted by using the RNeasy Mini Kit (Qiagen). Taqman® Gene Expression Assays (Mm01545399_m1) was used to quantify the expression of CALR, and the real-time PCR reaction was performed using a 7500 Fast Real-Time PCR machine (Applied Biosystems™). Statistical test was calculated by Graphpad Prism 7.0 using the two-tailed Student's t test.

Structure (SMILES): Oc1cc2c(cc1O)[C@@H]1c3ccc(O)c(O)c3OC[C@]1(O)C2 [hematoxylin, Hematoxylin]
- pIC50 (CALR mutant cell lines): 5.59
- outgrowth of mutant cells from the cell population [1]: inhibited the outgrowth of the mutant cells
- hypersensitivity towards the treatment [2]: did not show hypersensitivity
- PARP cleavage (apoptotic marker) (PARP cleavage): upregulation
- STAT5 phosphorylation (STAT5 phosphorylation): decrease
- magnitude of change (up-regulation) of wild-type and mutant CALR mRNA expression (CALR expression (mRNA)): around 1.3 fold
